From patent publication US5061794A, “Cephalosporin derivatives, and antibacterial agents” (priority 1986, dated 1991)
Converted amounts (≈) assume the structure as drawn. Read-outs that look alike come from different tables or passages of the source.

What was measured:
E. coli CSH(RE45) = experiment: microbe, parasite or virus in culture; format: cell-based; conditions: Escherichia coli, 16 h, read-out: Minimum Inhibitory Concentration (MIC), *E. coli CSH(RE45), lactamase-producing strain; 10^6 CFU/ml
Summary of the method: (§1)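 Plate dilution on Mueller Hinton agar with various antibiotic concentrations. Inoculum size was 10^6 CFU/ml, incubation 16 hours at 37° C.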

E. coli CSH2 (RK1) = experiment: microbe, parasite or virus in culture; format: cell-based; conditions: Escherichia coli, 16 h, read-out: Minimum Inhibitory Concentration (MIC), *E. coli CSH2 (RK1), lactamase-producing strain; 10^6 CFU/ml
Summary of the method: as §1

E. cloacae 963 = experiment: in vitro antibacterial activity, agar plate dilution method (MIC); format: cell-based; conditions: Enterobacter cloacae, 963, 16 h, read-out: Minimum Inhibitory Concentration (MIC), E. cloacae 963; 10^6 CFU/ml
Summary of the method: as §1

E. cloacae Nek 39 = experiment: as above; format: cell-based; conditions: Enterobacter cloacae, NEK39, 16 h, 10^6 CFU/ml
Summary of the method: as §1

E. coli GN5482 = experiment: as above; format: cell-based; conditions: Escherichia coli
Summary of the method: as §1

E. coli NIHJ JC2 = experiment: as above; format: cell-based; conditions: Escherichia coli, NIHJJC2, 16 h, read-out: Minimum Inhibitory Concentration (MIC), E. coli NIHJ JC2, 10^6 CFU/ml, 37° C.
Summary of the method: as §1

K. oxytoca GN10650 = experiment: as above; format: cell-based; conditions: Klebsiella oxytoca, 10^6 CFU/ml
Summary of the method: as §1

K. pneumoniae No. 42 = experiment: as above; format: cell-based; conditions: Klebsiella pneumoniae, NO.42, 16 h, read-out: Minimum Inhibitory Concentration (MIC), *K. pneumoniae No. 42, lactamase-producing strain; 10^6 CFU/ml
Summary of the method: as §1

K. pneumoniae PCI-602 = experiment: as above; format: cell-based; conditions: Klebsiella pneumoniae, PCI602, 16 h, 10^6 CFU/ml
Summary of the method: as §1

M. morganii GN5407 = experiment: as above; format: cell-based; conditions: Morganella morganii, GN5407, 16 h, read-out: Minimum Inhibitory Concentration (MIC), *M. morganii GN5407, lactamase-producing strain; 10^6 CFU/ml
Summary of the method: as §1

P. vulgaris HX-19 = experiment: as above; format: cell-based; conditions: Proteus vulgaris, HX19, 16 h, P. vulgaris HX-19; 10^6 CFU/ml; read-out: Minimum Inhibitory Concentration (MIC)
Summary of the method: as §1

P. vulgaris No. 33 = experiment: as above; format: cell-based; conditions: Proteus vulgaris, 10^6 CFU/ml
Summary of the method: as §1

S. aureus 209P NIHJ-JC1 = experiment: as above; format: cell-based; conditions: Staphylococcus aureus, 16 h
Summary of the method: as §1

S. marcescens IAM 1184 = experiment: as above; format: cell-based; conditions: Serratia marcescens, IAM1184, 16 h, read-out: Minimum Inhibitory Concentration (MIC)
Summary of the method: as §1

S. marcescens No. 16-2 = experiment: as above; format: cell-based; conditions: Serratia marcescens, NO.162, 16 h; *S. marcescens No. 16-2, lactamase-producing strain; 10^6 CFU/ml; read-out: Minimum Inhibitory Concentration (MIC)
Summary of the method: as §1

Ps. aeruginosa AK 109 = experiment: as above; format: cell-based, Pseudomonas aeruginosa; conditions: Pseudomonas aeruginosa, AK109, 16 h, 10^6 CFU/ml
Summary of the method: as §1

Ps. aeruginosa AKR17 = experiment: as above; format: cell-based, Pseudomonas aeruginosa; conditions: Pseudomonas aeruginosa, read-out: Minimum Inhibitory Concentration (MIC)
Summary of the method: as §1

Ps. aeruginosa IF03445 = experiment: as above; format: cell-based, Pseudomonas aeruginosa; conditions: Pseudomonas aeruginosa, 10^6 CFU/ml
Summary of the method: as §1

Ps. cepacia 23 = experiment: as above; format: cell-based, Pseudomonas cepacia; conditions: read-out: Minimum Inhibitory Concentration (MIC)
Summary of the method: as §1

A. calcoaceticus No. 4 = experiment: as above; format: cell-based, Acinetobacter calcoaceticus; conditions: Acinetobacter calcoaceticus, NO.4, 16 h, 10^6 CFU/ml
Summary of the method: as §1

[1] = read-out: Minimum Inhibitory Concentration (MIC), *E. cloacae Nek 39, lactamase-producing strain
[2] = GN5482, 16 h, read-out: Minimum Inhibitory Concentration (MIC), *E. coli GN5482, lactamase-producing strain, 10^6 CFU/ml
[3] = GN10650, 16 h, read-out: Minimum Inhibitory Concentration (MIC), *K. oxytoca GN10650, lactamase-producing strain
[4] = K. pneumoniae PCI-602, read-out: Minimum Inhibitory Concentration (MIC)
[5] = NO.33, 16 h, read-out: Minimum Inhibitory Concentration (MIC), *P. vulgaris No. 33, lactamase-producing strain
[6] = read-out: Minimum Inhibitory Concentration (MIC), Ps. aeruginosa AK 109
[7] = IF03445, 16 h, read-out: Minimum Inhibitory Concentration (MIC), Ps. aeruginosa IF03445
[8] = Burkholderia cepacia, 16 h, Ps. cepacia 23, 10^6 CFU/ml
[9] = read-out: Minimum Inhibitory Concentration (MIC), A. calcoaceticus No. 4
[10] = GN5482, 16 h, read-out: Minimum Inhibitory Concentration (MIC)
[11] = 16 h, *K. oxytoca GN10650, lactamase-producing strain, read-out: Minimum Inhibitory Concentration (MIC)
[12] = read-out: Minimum Inhibitory Concentration (MIC), K. pneumoniae PCI-602
[13] = Ps. aeruginosa AK 109, read-out: Minimum Inhibitory Concentration (MIC)
[14] = 16 h, Ps. aeruginosa AKR17, 10^6 CFU/ml
[15] = 16 h, Ps. aeruginosa IF03445, read-out: Minimum Inhibitory Concentration (MIC)
[16] = A. calcoaceticus No. 4, read-out: Minimum Inhibitory Concentration (MIC)
[17] = S. aureus 209P NIHJ-JC1, 10^6 CFU/ml, 37° C., 16 hours, read-out: Minimum Inhibitory Concentration (MIC)

Compound | MIC (E. coli CSH(RE45)) [mg/L] | MIC (E. coli CSH2 (RK1)) [mg/L] | MIC (E. cloacae 963) [mg/L] | MIC (E. cloacae Nek 39; [1]) [mg/L] | MIC (E. coli GN5482; [2]) [mg/L] | MIC (E. coli NIHJ JC2) [mg/L] | MIC (K. oxytoca GN10650; [3]) [mg/L] | MIC (K. pneumoniae No. 42) [mg/L] | MIC (M. morganii GN5407) [mg/L] | MIC (P. vulgaris HX-19) [mg/L] | MIC (P. vulgaris No. 33; [5]) [mg/L] | MIC (S. marcescens No. 16-2) [mg/L] | MIC (K. pneumoniae PCI-602; [12]) [mg/L] | MIC (S. marcescens IAM 1184) [mg/L] | MIC (Ps. aeruginosa AK 109; [13]) [mg/L] | MIC (Ps. aeruginosa AKR17; [14]) [mg/L] | MIC (Ps. aeruginosa IF03445; [15]) [mg/L] | MIC (Ps. cepacia 23; Burkholderia cepacia, 23, 16 h) [mg/L] | MIC (A. calcoaceticus No. 4; [16]) [mg/L] | MIC (S. aureus 209P NIHJ-JC1; [17]) [mg/L] | also measured
Nc1nc(/C(=N/OC(C(=O)O)c2ccc(O)c(O)c2)C(=O)N[C@@H]2C(=O)N3C(C(=O)O)=C(CSc4nnc(-c5ccc(O)c(O)c5)o4)CS[C@H]23)cs1 (stereo partly shown) [compound 16] | 3.12 (≈ 4.12 µM) | 0.025 (≈ 0.033 µM) | 0.39 (≈ 0.515 µM) | 0.78 (≈ 1.03 µM) | 0.78 (≈ 1.03 µM) | 0.2 (≈ 0.264 µM) | 0.1 (≈ 0.132 µM) | 0.2 (≈ 0.264 µM) | 0.2 (≈ 0.264 µM) | 0.05 (≈ 0.066 µM) | 0.78 (≈ 1.03 µM) | 25 (≈ 33 µM) | – | – | – | – | – | – | – | – | MIC (K. pneumoniae PCI-602; [4]): < 0.006 mg/L; MIC (S. aureus 209P NIHJ-JC1; read-out: Minimum Inhibitory Concentration (MIC), S. aureus 209P NIHJ-JC1, 10^6 CFU/ml, 37° C., 16 hours): 1.56 mg/L (≈ 2.06 µM); MIC (S. marcescens IAM 1184; S. marcescens IAM 1184, 10^6 CFU/ml): 0.1 mg/L (≈ 0.132 µM); MIC (Ps. aeruginosa AK 109; [6]): 0.78 mg/L (≈ 1.03 µM); MIC (Ps. aeruginosa AKR17; AKR17, 16 h): 3.12 mg/L (≈ 4.12 µM); MIC (Ps. aeruginosa IF03445; [7]): 6.25 mg/L (≈ 8.25 µM); MIC (Ps. cepacia 23; [8]): < 0.006 mg/L; MIC (A. calcoaceticus No. 4; [9]): 0.1 mg/L (≈ 0.132 µM)
CO/N=C(\C(=O)N[C@@H]1C(=O)N2C(C(=O)O)=C(CSc3nc(-c4ccc(O)cc4)c(CC(=O)O)s3)CS[C@H]12)c1csc(N)n1 [compound 17, disodium 7β-[2-(2-aminothiazol-4-yl)-2-methoxyminoacetamido]-3-[5-carboxylatemethyl-4-(4-hydroxyphenyl)thiazol-2-yl]thiomethyl-3-cephem-4-carboxylate, reference compound] | 0.78 | 0.39 | 0.39 | 12.5 | – | 0.39 | – | 0.78 | 0.39 | < 0.006 | 0.1 | 100 | 0.1 | 0.39 | 50 | > 100 | 50 | 6.25 | 100 | – | MIC (E. coli GN5482; [10]): 3.12 mg/L; MIC (K. oxytoca GN10650; [11]): 25 mg/L; MIC (S. aureus 209P NIHJ-JC1; read-out: Minimum Inhibitory Concentration (MIC)): 3.12 mg/L
CO/N=C(\C(=O)N[C@@H]1C(=O)N2C(C(=O)O)=C(CSc3nc(-c4ccc(OC(C)=O)cc4)c(CC(=O)O)s3)CS[C@H]12)c1csc(N)n1 [compound 18, disodium 3-[4-(4-acetoxyphenyl)-5-carboxylatemethylthiazol-2-yl]thiomethyl-7δ-[2-(2-aminothiazol-4-yl)-2-methoxyiminoacetamido]-3-cephem-4-carboxylate, reference compound] | 1.56 | 0.78 | 0.78 | 12.5 | – | 0.78 | – | 0.78 | 0.39 | < 0.006 | 0.1 | 100 | – | 0.78 | > 100 | > 100 | 100 | 12.5 | 100 | 3.12 | MIC (E. coli GN5482; 16 h, *E. coli GN5482, lactamase-producing strain, 10^6 CFU/ml, read-out: Minimum Inhibitory Concentration (MIC)): 3.12 mg/L; MIC (K. oxytoca GN10650; [11]): 25 mg/L; MIC (K. pneumoniae PCI-602; [4]): 0.2 mg/L
CC(C)(O/N=C(\C(=O)N[C@@H]1C(=O)N2C(C(=O)O)=C(CSc3nc(-c4ccc(O)cc4)c(CC(=O)O)s3)CS[C@H]12)c1csc(N)n1)C(=O)O [compound 19, reference compound] | 1.56 (≈ 2.12 µM) | 1.56 (≈ 2.12 µM) | 3.12 (≈ 4.25 µM) | 6.25 (≈ 8.51 µM) | – | 3.12 (≈ 4.25 µM) | 1.56 (≈ 2.12 µM) | 1.56 (≈ 2.12 µM) | 1.56 (≈ 2.12 µM) | < 0.006 | 0.05 (≈ 0.068 µM) | 25 (≈ 34 µM) | 0.39 (≈ 0.531 µM) | 0.78 (≈ 1.06 µM) | – | 25 (≈ 34 µM) | – | – | – | 50 (≈ 68 µM) | MIC (E. coli GN5482; [10]): 3.12 mg/L (≈ 4.25 µM); MIC (Ps. aeruginosa AK 109; [6]): 6.25 mg/L (≈ 8.51 µM); MIC (Ps. aeruginosa IF03445; [7]): 12.5 mg/L (≈ 17 µM); MIC (Ps. cepacia 23; [8]): 0.2 mg/L (≈ 0.272 µM); MIC (A. calcoaceticus No. 4; [9]): 6.25 mg/L (≈ 8.51 µM)
CC(=O)Oc1ccc(-c2nc(SCC3=C(C(=O)O)N4C(=O)[C@@H](NC(=O)/C(=N\OC(C)(C)C(=O)O)c5csc(N)n5)[C@H]4SC3)sc2CC(=O)O)cc1 [compound 20, trisodium 3-[4-(4-acetoxyphenyl)-5-carboxylatemethylthiazol-2-yl]thiomethyl-7β-[2-(2-aminothiazol-4-yl)-2-(1-carboxylate-1-methylethoxyimino)acetamido]-3-cephem-4-carboxylate, reference compound] | 3.12 | 3.12 | 6.25 | – | 6.25 | 3.12 | 3.12 | 3.12 | 3.12 | < 0.006 | – | 100 | 1.56 | 1.56 | 25 | > 100 | 25 | 6.25 | > 100 | 50 | MIC (E. cloacae Nek 39; *E. cloacae Nek 39, lactamase-producing strain, read-out: Minimum Inhibitory Concentration (MIC)): 25 mg/L; MIC (P. vulgaris No. 33; 16 h, *P. vulgaris No. 33, lactamase-producing strain, read-out: Minimum Inhibitory Concentration (MIC)): 0.1 mg/L
